The values that follow come from US11207325B2, “Triazolopyrimidine compounds and uses thereof” (Novartis AG, priority 2014, dated 2021).

What is called IC50 is the point on the concentration scale where inhibition reaches its midpoint.

The test system of the experiment is H3K27 methylation in G401 cell. As to the kind of experiment: ELISA (H3K27 methylation) assay. The conditions noted are these: Homo sapiens, G-401; ELISA Qualified assay (H3K27 methylation); read-out: (c) IC50 (μM), ELISA Qualified. The class given is cell-based. From the text: ELISA (H3K27 Methylation) Assay
(ELISA stands for enzyme-linked immunosorbent assay.)
In the case of `Nc1ccncc1-c1cnc(NCc2cccc3c2CCO3)n2cnnc12` [Example 76, 8-(4-aminopyridin-3-yl)-N-((2,3-dihydrobenzofuran-4-yl)methyl)-[1,2,4]triazolo[4,3-c]pyrimidin-5-amine], the IC50 stood at 0.32 µM.

`c1cc(CNc2ncc(-c3cncc(N4CCNCC4)c3)c3nncn23)c2c(c1)OCC2` [Example 77, N-((2,3-dihydrobenzofuran-4-yl)methyl)-8-(5-(piperazin-1-yl)pyridin-3-yl)-[1,2,4]triazolo[4,3-c]pyrimidin-5-amine]: the IC50 turned out to be 0.581 µM. As for `O=C(c1ccc(-c2cnc(NCc3cccc4c3CCO4)n3cnnc23)cn1)N1CCCC1` [Example 80, (5-(5-(((2,3-dihydrobenzofuran-4-yl)methyl)amino)-[1,2,4]triazolo[4,3-c]pyrimidin-8-yl)pyridin-2-yl)(pyrrolidin-1-yl)methanone], the IC50 turned out to be 0.132 µM. In the case of `c1cc(CNc2ncc(-c3ccc(N4CCSCC4)nc3)c3nncn23)c2c(c1)OCC2` [Example 81, N-((2,3-dihydrobenzofuran-4-yl)methyl)-8-(6-thiomorpholinopyridin-3-yl)-[1,2,4]triazolo[4,3-c]pyrimidin-5-amine], the IC50 was found to be 0.155 µM. Turning to `Cc1nn(C(C)C)cc1-c1cnc(NCc2cccc3c2CCO3)n2cnnc12` [Example 82, N-((2,3-dihydrobenzofuran-4-yl)methyl)-8-(1-isopropyl-3-methyl-1H-pyrazol-4-yl)-[1,2,4]triazolo[4,3-c]pyrimidin-5-amine], the IC50 came to 0.107 µM.

As for `COCc1ncc(-c2cnc(NCc3cccc4c3CCO4)n3cnnc23)cc1C` [Example 83, N-((2,3-dihydrobenzofuran-4-yl)methyl)-8-(6-(methoxymethyl)-5-methylpyridin-3-yl)-[1,2,4]triazolo[4,3-c]pyrimidin-5-amine], the half-inhibitory concentration (IC50) came to 0.14 µM.

As to `CC(O)c1ccc(-c2cnc(NCc3cccc4c3CCO4)n3cnnc23)cn1` (centres unmarked) [Example 84, 1-(5-(5-(((2,3-dihydrobenzofuran-4-yl)methyl)amino)-[1,2,4]triazolo[4,3-c]pyrimidin-8-yl)pyridin-2-yl)ethanol], the half-maximal inhibitory concentration (IC50) amounted to 0.148 µM. On to `Fc1ccncc1-c1cnc(NCc2cccc3c2CCO3)n2cnnc12` [Example 85, N-((2,3-dihydrobenzofuran-4-yl)methyl)-8-(4-fluoropyridin-3-yl)-[1,2,4]triazolo[4,3-c]pyrimidin-5-amine], for which the half-maximal inhibitory concentration (IC50) is 0.0333 µM. `COCCc1ccc(-c2cnc(NCc3cccc4c3CCO4)n3cnnc23)cn1` [Example 86, N-((2,3-dihydrobenzofuran-4-yl)methyl)-8-(6-(2-methoxyethyl)pyridin-3-yl)-[1,2,4]triazolo[4,3-c]pyrimidin-5-amine]: the IC50 was determined as 0.0758 µM. Consider `O=C1CCCN1c1cncc(-c2cnc(NCc3cccc4c3CCO4)n3cnnc23)c1` [Example 87, 1-(5-(5-(((2,3-dihydrobenzofuran-4-yl)methyl)amino)-[1,2,4]triazolo[4,3-c]pyrimidin-8-yl)pyridin-3-yl)pyrrolidin-2-one], for which the half-inhibitory concentration (IC50) is 0.707 µM. With `CN(C)c1ncc(-c2cnc(NCc3cccc4c3CCO4)n3cnnc23)cn1` [Example 88, N-((2,3-dihydrobenzofuran-4-yl)methyl)-8-(2-(dimethylamino)pyrimidin-5-yl)-[1,2,4]triazolo[4,3-c]pyrimidin-5-amine] the figure was 0.238 µM.

In the case of `CN(C)CCc1cccc(-c2cnc(NCc3cccc4c3CCO4)n3cnnc23)c1` [Example 89, N-((2,3-dihydrobenzofuran-4-yl)methyl)-8-(3-(2-(dimethylamino)ethyl)phenyl)-[1,2,4]triazolo[4,3-c]pyrimidin-5-amine], the IC50 came out at 0.101 µM.

Regarding `CC1(C)COC(c2cncc(-c3cnc(NCc4cccc5c4CCO5)n4cnnc34)c2)=N1` [Example 90, N-((2,3-dihydrobenzofuran-4-yl)methyl)-8-(5-(4,4-dimethyl-4,5-dihydrooxazol-2-yl)pyridin-3-yl)-[1,2,4]triazolo[4,3-c]pyrimidin-5-amine], the 50% inhibitory concentration (IC50) was determined as 0.675 µM. As for `Fc1ccc2c(c1CNc1ncc(-c3ccc(N4CCSCC4)nc3)c3nncn13)CCO2` [Example 91, N-((5-fluoro-2,3-dihydrobenzofuran-4-yl)methyl)-8-(6-thiomorpholinopyridin-3-yl)-[1,2,4]triazolo[4,3-c]pyrimidin-5-amine], the half-inhibitory concentration (IC50) was determined as 0.0225 µM. The same measure for `Fc1ccc2c(c1CNc1ncc(-c3ccc(N4CCOCC4)nc3)c3nncn13)CCO2` [Example 92, N-((5-fluoro-2,3-dihydrobenzofuran-4-yl)methyl)-8-(6-morpholinopyridin-3-yl)-[1,2,4]triazolo[4,3-c]pyrimidin-5-amine]: 0.0409 µM.

Regarding `N#Cc1ccc(-c2cnc(NCc3c(F)ccc4c3CCO4)n3cnnc23)cn1` [Example 93, 5-(5-(((5-fluoro-2,3-dihydrobenzofuran-4-yl)methyl)amino)-[1,2,4]triazolo[4,3-c]pyrimidin-8-yl)picolinonitrile], the half-inhibitory concentration (IC50) worked out at 0.0241 µM. For `Fc1ccccc1-c1cnc(NCc2c(F)ccc3c2CCO3)n2cnnc12` [Example 94, N-((5-fluoro-2,3-dihydrobenzofuran-4-yl)methyl)-8-(2-fluorophenyl)-[1,2,4]triazolo[4,3-c]pyrimidin-5-amine], the half-inhibitory concentration (IC50) amounted to 0.0257 µM.

For the compound `CN(C)C(=O)c1ccc(-c2cnc(NCc3cccc4c3CCO4)n3cnnc23)cn1` [Example 95, 5-(5-(((2,3-dihydrobenzofuran-4-yl)methyl)amino)-[1,2,4]triazolo[4,3-c]pyrimidin-8-yl)-N,N-dimethylpicolinamide], the concentration for half-maximal inhibition (IC50) amounted to 0.158 µM. With `CC1CCCN1c1ccc(-c2cnc(NCc3cccc4c3CCO4)n3cnnc23)cn1` (centres unmarked) [Example 96, N-((2,3-dihydrobenzofuran-4-yl)methyl)-8-(6-(2-methylpyrrolidin-1-yl)pyridin-3-yl)-[1,2,4]triazolo[4,3-c]pyrimidin-5-amine] the figure was 0.329 µM. Regarding `COC(=O)N1CCN(c2ccc(-c3cnc(NCc4cccc5c4CCO5)n4cnnc34)cn2)CC1` [Example 97, methyl 4-(5-(5-(((2,3-dihydrobenzofuran-4-yl)methyl)amino)-[1,2,4]triazolo[4,3-c]pyrimidin-8-yl)pyridin-2-yl)piperazine-1-carboxylate], the IC50 stood at 0.183 µM. On to `CS(=O)(=O)CCCOc1cncc(-c2cnc(NCc3cccc4c3CCO4)n3cnnc23)c1` [Example 98, N-((2,3-dihydrobenzofuran-4-yl)methyl)-8-(5-(3-(methylsulfonyl)propoxy)pyridin-3-yl)-[1,2,4]triazolo[4,3-c]pyrimidin-5-amine], for which the half-maximal inhibitory concentration (IC50) was found to be 1.42 µM. The same measure for `CC(C)(O)c1ccc(-c2cnc(NCc3cccc4c3CCO4)n3cnnc23)cn1` [Example 99, 2-(5-(5-(((2,3-dihydrobenzofuran-4-yl)methyl)amino)-[1,2,4]triazolo[4,3-c]pyrimidin-8-yl)pyridin-2-yl)propan-2-ol]: 0.107 µM; for `FC1(F)CCN(CCc2ccc(-c3cnc(NCc4cccc5c4CCO5)n4cnnc34)cn2)C1` [Example 100, 8-(6-(2-(3,3-difluoropyrrolidin-1-yl)ethyl)pyridin-3-yl)-N-((2,3-dihydrobenzofuran-4-yl)methyl)-[1,2,4]triazolo[4,3-c]pyrimidin-5-amine]: 0.181 µM; for `CC1(C)COC(c2ccc(-c3cnc(NCc4cccc5c4CCO5)n4cnnc34)cn2)=N1` [Example 101, N-((2,3-dihydrobenzofuran-4-yl)methyl)-8-(6-(4,4-dimethyl-4,5-dihydrooxazol-2-yl)pyridin-3-yl)-[1,2,4]triazolo[4,3-c]pyrimidin-5-amine]: 0.761 µM. The same measure for `CN(C)CCN(C)C(=O)c1ccc(-c2cnc(NCc3cccc4c3CCO4)n3cnnc23)cn1` [Example 102, 5-(5-(((2,3-dihydrobenzofuran-4-yl)methyl)amino)-[1,2,4]triazolo[4,3-c]pyrimidin-8-yl)-N-(2-(dimethylamino)ethyl)-N-methylpicolinamide]: 0.285 µM. The same measure for `O=C1CN(c2ccc(-c3cnc(NCc4cccc5c4CCO5)n4cnnc34)cn2)CCN1` [Example 104, 4-(5-(5-(((2,3-dihydrobenzofuran-4-yl)methyl)amino)-[1,2,4]triazolo[4,3-c]pyrimidin-8-yl)pyridin-2-yl)piperazin-2-one]: 2.33 µM; for `Cc1cc(-c2cnc(NCc3cccc4c3CCO4)n3cnnc23)cnc1N1CCNC(=O)C1` [Example 105, 4-(5-(5-(((2,3-dihydrobenzofuran-4-yl)methyl)amino)-[1,2,4]triazolo[4,3-c]pyrimidin-8-yl)-3-methylpyridin-2-yl)piperazin-2-one]: 2.42 µM; for `CS(=O)(=O)CCOc1cncc(-c2cnc(NCc3cccc4c3CCO4)n3cnnc23)c1` [Example 106, N-((2,3-dihydrobenzofuran-4-yl)methyl)-8-(5-(2-(methylsulfonyl)ethoxy)pyridin-3-yl)-[1,2,4]triazolo[4,3-c]pyrimidin-5-amine]: 2.7 µM.

`O=CN1CCN(CCc2ccc(-c3cnc(NCc4cccc5c4CCO5)n4cnnc34)cn2)CC1` [Example 107, 4-(2-(5-(5-(((2,3-dihydrobenzofuran-4-yl)methyl)amino)-[1,2,4]triazolo[4,3-c]pyrimidin-8-yl)pyridin-2-yl)ethyl)piperazine-1-carbaldehyde]: the 50% inhibitory concentration (IC50) amounted to 0.161 µM. With `CC(=O)N1CCN(CCc2ccc(-c3cnc(NCc4cccc5c4CCO5)n4cnnc34)cn2)CC1` [Example 108, 1-(4-(2-(5-(5-(((2,3-dihydrobenzofuran-4-yl)methyl)amino)-[1,2,4]triazolo[4,3-c]pyrimidin-8-yl)pyridin-2-yl)ethyl)piperazin-1-yl)ethanone] the figure was 0.173 µM.

Take `O=C1CN(CCc2ccc(-c3cnc(NCc4cccc5c4CCO5)n4cnnc34)cn2)CCN1` [Example 109, 4-(2-(5-(5-(((2,3-dihydrobenzofuran-4-yl)methyl)amino)-[1,2,4]triazolo[4,3-c]pyrimidin-8-yl)pyridin-2-yl)ethyl)piperazin-2-one]: the IC50 was determined as 1.21 µM. The same measure for `OCCN1CCN(c2ccc(-c3cnc(NCc4cccc5c4CCO5)n4cnnc34)cn2)CC1` [Example 110, 2-(4-(5-(5-(((2,3-dihydrobenzofuran-4-yl)methyl)amino)-[1,2,4]triazolo[4,3-c]pyrimidin-8-yl)pyridin-2-yl)piperazin-1-yl)ethanol]: 0.124 µM.
